Results as given in ChEMBL document CHEMBL3351875, “Synthesis of Deuterated Benzopyran Derivatives as Selective COX-2 Inhibitors with Improved Pharmacokinetic Properties” (ACS Med Chem Lett, 2014).

Tests used:
[1] = Cmax in Sprague-Dawley rat at 5 mg/kg, iv measured during 1 to 24 hrs by LC-MS method; type: ADME, organism-based; parameters: dose 5 mg/kg, route intravenous; conditions: in vivo
Rattus norvegicus [2] = assay: Volume of distribution in Sprague-Dawley rat at 10 mg/kg, po measured during 1 to 24 hrs by LC-MS method; type: ADME, organism-based; parameters: dose 10 mg/kg, route oral; conditions: in vivo
Rattus norvegicus [3] = assay: Tmax in Sprague-Dawley rat at 10 mg/kg, po measured during 1 to 24 hrs by LC-MS method; type: ADME, organism-based; parameters: dose 10 mg/kg, route oral; conditions: in vivo
[4] = Cmax in Sprague-Dawley rat at 10 mg/kg, po measured during 1 to 24 hrs by LC-MS method; type: ADME, organism-based; parameters: dose 10 mg/kg, route oral; conditions: in vivo
[5] = Apparent oral clearance in Sprague-Dawley rat at 5 mg/kg, iv measured during 1 to 24 hrs by LC-MS method; type: ADME, organism-based; parameters: dose 5 mg/kg, route oral; conditions: in vivo
[6] = Apparent oral clearance in Sprague-Dawley rat at 10 mg/kg, po measured during 1 to 24 hrs by LC-MS method; type: ADME, organism-based; parameters: dose 10 mg/kg, route oral; conditions: Sprague-Dawley, in vivo
Rattus norvegicus [7] = assay: Half life in Sprague-Dawley rat at 5 mg/kg, iv measured during 1 to 24 hrs by LC-MS method; type: ADME, organism-based; parameters: dose 5 mg/kg, route intravenous; conditions: in vivo
[8] = (§1) AUC (0 to infinity) in Sprague-Dawley rat at 10 mg/kg, po measured during 1 to 24 hrs by LC-MS method; type: ADME, organism-based, Plasma; parameters: time infinity, dose 10 mg/kg, route oral; conditions: Sprague-Dawley, plasma
[9] = Volume of distribution in Sprague-Dawley rat at 5 mg/kg, iv measured during 1 to 24 hrs by LC-MS method; type: ADME, organism-based; parameters: dose 5 mg/kg, route intravenous; conditions: in vivo
Rattus norvegicus [10] = assay: Half life in Sprague-Dawley rat at 10 mg/kg, po measured during 1 to 24 hrs by LC-MS method; type: ADME, organism-based; parameters: dose 10 mg/kg, route oral; conditions: in vivo
[11] = Oral bioavailability in Sprague-Dawley rat at 10 mg/kg measured during 1 to 24 hrs by LC-MS method; type: ADME, organism-based; conditions: Sprague-Dawley, in vivo
[12] = (§2) AUC (0 to infinity) in Sprague-Dawley rat at 5 mg/kg, iv measured during 1 to 24 hrs by LC-MS method; type: ADME, organism-based, Plasma; parameters: time infinity, dose 5 mg/kg, route intravenous; conditions: Sprague-Dawley, plasma
[13] = biological target: Prostaglandin G/H synthase 1 (Homo sapiens, UniProt P23219); assay: Inhibition of human recombinant COX1 pre-incubated for 15 mins before fluorometric substrate addition by fluorescence based assay
Prostaglandin G/H synthase 1, sequence (P23219 whole entry): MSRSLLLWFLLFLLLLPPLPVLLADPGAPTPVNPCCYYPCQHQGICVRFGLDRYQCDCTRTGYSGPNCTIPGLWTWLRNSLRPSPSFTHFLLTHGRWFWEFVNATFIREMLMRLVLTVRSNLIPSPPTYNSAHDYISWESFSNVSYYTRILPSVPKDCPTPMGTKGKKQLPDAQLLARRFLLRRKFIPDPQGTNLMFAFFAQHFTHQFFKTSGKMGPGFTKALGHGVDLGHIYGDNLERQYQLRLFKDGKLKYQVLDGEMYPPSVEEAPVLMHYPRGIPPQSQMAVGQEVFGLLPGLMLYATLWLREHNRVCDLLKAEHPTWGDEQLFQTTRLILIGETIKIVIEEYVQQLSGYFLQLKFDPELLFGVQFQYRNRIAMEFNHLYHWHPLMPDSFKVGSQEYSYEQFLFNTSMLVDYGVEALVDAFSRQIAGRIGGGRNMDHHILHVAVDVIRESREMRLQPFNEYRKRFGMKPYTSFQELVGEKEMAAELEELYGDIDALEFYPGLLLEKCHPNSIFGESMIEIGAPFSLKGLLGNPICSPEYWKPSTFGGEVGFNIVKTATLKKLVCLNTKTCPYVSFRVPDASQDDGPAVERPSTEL

[14] = Apparent oral clearance in Sprague-Dawley rat at 2.5 mg/kg, po measured during 1 to 24 hrs by LC-MS method; type: ADME, organism-based; parameters: dose 2.5 mg/kg, route oral; conditions: Sprague-Dawley, in vivo
Rattus norvegicus [15] = assay: AUC (0 to infinity) in Sprague-Dawley rat at 2.5 mg/kg, po measured during 1 to 24 hrs by LC-MS method; type: ADME, organism-based, Plasma; parameters: dose 2.5 mg/kg, route oral, time infinity; conditions: in vivo
Rattus norvegicus [16] = assay: Half life in Sprague-Dawley rat at 2.5 mg/kg, po measured during 1 to 24 hrs by LC-MS method; type: ADME, organism-based; parameters: dose 2.5 mg/kg, route oral; conditions: in vivo
Rattus norvegicus [17] = assay: Tmax in Sprague-Dawley rat at 2.5 mg/kg, po measured during 1 to 24 hrs by LC-MS method; type: ADME, organism-based; parameters: dose 2.5 mg/kg, route oral; conditions: in vivo
[18] = Volume of distribution in Sprague-Dawley rat at 1 mg/kg, iv measured during 1 to 24 hrs by LC-MS method; type: ADME, organism-based; parameters: dose 1 mg/kg, route intravenous; conditions: in vivo
Rattus norvegicus [19] = assay: Antiinflammatory activity in orally dosed Sprague-Dawley rat model of carrageenan-induced air pouch inflammation assessed as reduction in PGE2 level by ELISA method; type: functional, organism-based
[20] = Cmax in Sprague-Dawley rat at 1 mg/kg, iv measured during 1 to 24 hrs by LC-MS method; type: ADME, organism-based; parameters: dose 1 mg/kg, route intravenous; conditions: in vivo
Rattus norvegicus [21] = assay: AUC (0 to infinity) in Sprague-Dawley rat at 1 mg/kg, iv measured during 1 to 24 hrs by LC-MS method; type: ADME, organism-based, Plasma; parameters: time infinity, dose 1 mg/kg, route intravenous; conditions: in vivo
[22] = Oral bioavailability in Sprague-Dawley rat at 2.5 mg/kg measured during 1 to 24 hrs by LC-MS method; type: ADME, organism-based; conditions: Sprague-Dawley, in vivo
[23] = Cmax in Sprague-Dawley rat at 2.5 mg/kg, po measured during 1 to 24 hrs by LC-MS method; type: ADME, organism-based; parameters: dose 2.5 mg/kg, route oral; conditions: in vivo
Rattus norvegicus [24] = assay: Half life in Sprague-Dawley rat at 1 mg/kg, iv measured during 1 to 24 hrs by LC-MS method; type: ADME, organism-based; parameters: dose 1 mg/kg, route intravenous; conditions: in vivo
[25] = Apparent oral clearance in Sprague-Dawley rat at 1 mg/kg, iv measured during 1 to 24 hrs by LC-MS method; type: ADME, organism-based; parameters: dose 1 mg/kg, route oral; conditions: in vivo
Rattus norvegicus [26] = assay: Antiarthritic activity in Lewis rat model of adjuvant-induced arthritis administrated by oral gavage once daily; type: functional
Rattus norvegicus [27] = assay: Antiinflammatory activity in orally dosed Sprague-Dawley rat model of carrageenan-induced foot paw edema assessed as reduction in edema by plethysmometry; type: functional, organism-based
Rattus norvegicus [28] = assay: Antinociceptive activity in orally dosed Sprague-Dawley rat model of carrageenan-induced foot paw hyperalgesia assessed as paw withdrawal latency; type: functional, organism-based
[29] = biological target: T1, Prostaglandin G/H synthase 2 (Homo sapiens, UniProt P35354); assay: Inhibition of human recombinant COX2 pre-incubated for 15 mins before fluorometric substrate addition by fluorescence based assay
T1 sequence (P35354 whole entry): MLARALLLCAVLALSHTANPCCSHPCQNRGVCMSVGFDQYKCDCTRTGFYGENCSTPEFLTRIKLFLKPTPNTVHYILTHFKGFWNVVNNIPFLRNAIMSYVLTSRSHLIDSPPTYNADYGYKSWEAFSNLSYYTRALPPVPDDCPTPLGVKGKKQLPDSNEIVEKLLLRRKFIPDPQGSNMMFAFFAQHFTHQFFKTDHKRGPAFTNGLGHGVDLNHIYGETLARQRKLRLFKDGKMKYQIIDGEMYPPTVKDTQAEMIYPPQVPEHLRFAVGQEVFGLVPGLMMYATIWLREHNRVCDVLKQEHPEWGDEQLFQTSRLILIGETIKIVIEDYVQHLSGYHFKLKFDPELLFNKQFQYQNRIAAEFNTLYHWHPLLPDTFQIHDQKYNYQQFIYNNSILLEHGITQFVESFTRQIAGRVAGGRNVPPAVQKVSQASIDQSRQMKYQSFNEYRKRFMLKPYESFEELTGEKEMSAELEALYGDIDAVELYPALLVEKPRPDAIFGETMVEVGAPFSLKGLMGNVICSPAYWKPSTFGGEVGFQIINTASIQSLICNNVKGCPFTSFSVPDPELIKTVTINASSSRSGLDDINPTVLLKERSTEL

Rattus norvegicus [30] = assay: as §1; type: ADME, organism-based, Plasma; parameters: time infinity, dose 10 mg/kg, route oral; conditions: in vivo
Rattus norvegicus [31] = assay: as §2; type: ADME, organism-based, Plasma; parameters: time infinity, dose 5 mg/kg, route intravenous; conditions: in vivo

CC(C)(C)c1cc2c(cc1Cl)C=C(C(=O)O)[C@@H](C(F)(F)F)O2 [TIGEMOCOXIB]
Cmax [1]: 37200 ng/mL
Vd (Rattus norvegicus [2]): 2.314 L/kg
Tmax (Rattus norvegicus [3]): 0.75 h
Cmax [4]: 8150 ng/mL
CL/F [5]: 2.67 mL/min/kg
CL/F [6]: 4.03 mL/min/kg
t1/2 (Rattus norvegicus [7]): 5.78 h
AUC(0-inf) [8]: 42200 ng·h/mL
Vd [9]: 1.35 L/kg
t1/2 (Rattus norvegicus [10]): 6.68 h
bioavailability [11]: 67.5%
AUC(0-inf) [12]: 31300 ng·h/mL

[2H]C([2H])([2H])c1c(Br)c2c(c(C([2H])([2H])[2H])c1Br)C=C(C(=O)O)C(C(F)(F)F)O2 (configuration not stated)
IC50 [13]: > 100 µM

Cc1cc(Cl)cc2c1OC(C(F)(F)F)C(C(=O)O)=C2 (configuration not stated)
CL/F [14]: 9.12 mL/min/kg
AUC (Rattus norvegicus [15]): 4627.624 ng·h/mL
t1/2 (Rattus norvegicus [16]): 1.75 h
Tmax (Rattus norvegicus [17]): 0.25 h
Vd [18]: 0.59 L/kg
EC50 (Rattus norvegicus [19]): 0.61 mg/kg
Cmax [20]: 4130 ng/mL
AUC (Rattus norvegicus [21]): 1440.446 ng·h/mL
bioavailability [22]: 128%
Cmax [23]: 2720 ng/mL
t1/2 (Rattus norvegicus [24]): 0.59 h
CL/F [25]: 11.8 mL/min/kg

[2H]C([2H])([2H])c1cc2c(c(C([2H])([2H])[2H])c1)OC(C(F)(F)F)C(C(=O)O)=C2 (configuration not stated)
IC50 [13]: > 100 µM

[2H]C([2H])([2H])c1cc2c(c(C([2H])([2H])[2H])c1Cl)C=C(C(=O)O)[C@@H](C(F)(F)F)O2
IC50 [13]: > 100 µM

Cc1ccc(-c2cc(C(F)(F)F)nn2-c2ccc(S(N)(=O)=O)cc2)cc1 [CELECOXIB]
ED50 (Rattus norvegicus [26]): 1.57 mg/kg
EC50 (Rattus norvegicus [27]): 2.81 mg/kg
EC50 (Rattus norvegicus [19]): 0.69 mg/kg
EC50 (Rattus norvegicus [28]): 5 mg/kg

[2H]C([2H])([2H])c1cc2c(c(C([2H])([2H])[2H])c1Br)C=C(C(=O)O)[C@@H](C(F)(F)F)O2
IC50 [29]: 0.009 µM
IC50 [13]: > 100 µM

[2H]C([2H])([2H])c1cc(Br)cc2c1OC(C(F)(F)F)C(C(=O)O)=C2 (configuration not stated)
Cmax [1]: 39000 ng/mL
Vd (Rattus norvegicus [2]): 0.53 L/kg
IC50 [29]: 0.039 µM
ED50 (Rattus norvegicus [26]): 0.42 mg/kg
EC50 (Rattus norvegicus [27]): 3 mg/kg
CL/F [5]: 1.28 mL/min/kg
CL/F [6]: 1.2 mL/min/kg
t1/2 (Rattus norvegicus [7]): 4.186 h
EC50 (Rattus norvegicus [19]): 0.27 mg/kg
AUC (Rattus norvegicus [30]): 142686.966 ng·h/mL
Vd [9]: 0.461 L/kg
bioavailability [11]: 107%
EC50 (Rattus norvegicus [28]): 2.19 mg/kg
AUC (Rattus norvegicus [31]): 66436.832 ng·h/mL
